Test results reported in ChEMBL document CHEMBL4673231, “Novel isoniazid embedded triazole derivatives: Synthesis, antitubercular and antimicrobial activity evaluation” (Bioorg Med Chem Lett, 2020).
In brackets after ≈: the same amount, converted by molar mass. Activity calls are given as the source filed them. The calls are words filed in the database; no cut-off is given here.

Assays:
[1] = system: Mycobacterium tuberculosis; test: Antimycobacterial activity against Mycobacterium tuberculosis H37Rv assessed as reduction in microbial growth incubated for 7 days by alamar blue assay; format: functional; conditions: 168 h, time 7 day
Staphylococcus aureus [2] = test: Antibacterial activity against Staphylococcus aureus assessed as diameter of inhibition zone at 1 mg/ml incubated for 24 hrs by agar well diffusion assay; format: functional; conditions: read-out: DIZ
Bacillus cereus = test: Antibacterial activity against Bacillus cereus assessed as diameter of inhibition zone at 1 mg/ml incubated for 24 hrs by agar well diffusion assay; format: functional; conditions: read-out: DIZ
Bacillus subtilis = test: Antibacterial activity against Bacillus subtilis assessed as diameter of inhibition zone at 1 mg/ml incubated for 24 hrs by agar well diffusion assay; format: functional; conditions: read-out: DIZ
Klebsiella aerogenes [3] = test: Antibacterial activity against Enterobacter aerogenes assessed as diameter of inhibition zone at 1 mg/ml incubated for 24 hrs by agar well diffusion assay; format: functional; conditions: read-out: DIZ
Escherichia coli = test: Antibacterial activity against Escherichia coli assessed as diameter of inhibition zone at 1 mg/ml incubated for 24 hrs by agar well diffusion assay; format: functional; conditions: for zone of inhibition at 1000 µg/mL: read-out: DIZ
Salmonella typhi [4] = test: Antibacterial activity against Salmonella typhi assessed as diameter of inhibition zone at 1 mg/ml incubated for 24 hrs by agar well diffusion assay; format: functional, Salmonella enterica subsp. enterica serovar Typhi; conditions: Salmonella enterica, read-out: DIZ
Pseudomonas aeruginosa = test: Antibacterial activity against Pseudomonas aeruginosa assessed as diameter of inhibition zone at 1 mg/ml incubated for 24 hrs by agar well diffusion assay; format: functional; conditions: for zone of inhibition at 1000 µg/mL: read-out: DIZ
Shigella boydii = test: Antibacterial activity against Shigella boydii assessed as diameter of inhibition zone at 1 mg/ml incubated for 24 hrs by agar well diffusion assay; format: functional; conditions: read-out: DIZ
[5] = system: Salmonella enterica subsp. enterica serovar Abony; test: Antibacterial activity against Salmonella enterica subsp. enterica serovar Abony assessed as diameter of inhibition zone at 1 mg/ml incubated for 24 hrs by agar well diffusion assay; format: functional; conditions: for zone of inhibition at 1000 µg/mL: read-out: DIZ
Aspergillus niger = test: Antifungal activity against Aspergillus niger assessed as diameter of inhibition zone at 1 mg/ml incubated for 24 hrs by agar well diffusion assay; format: functional; conditions: read-out: DIZ
Saccharomyces cerevisiae = test: Antifungal activity against Saccharomyces cerevisiae assessed as diameter of inhibition zone at 1 mg/ml incubated for 24 hrs by agar well diffusion assay; format: functional; conditions: read-out: DIZ
Salmonella typhi [6] = test: Antibacterial activity against Salmonella typhi ATCC 9207 by CLSI method; format: functional, Salmonella enterica subsp. enterica serovar Typhi; conditions: Salmonella enterica
Staphylococcus aureus [7] = test: Antibacterial activity against Staphylococcus aureus ATCC 6538 by CLSI method; format: functional
Klebsiella aerogenes [8] = test: Antibacterial activity against Enterobacter aerogenes ATCC 13048 by CLSI method; format: functional
[9] = Cytotoxicity against mouse RAW264.7 cells assessed as reduction in cell viability at 25 ug/ml incubated for 48 hrs by MTT assay; format: cell-based; conditions: at 25 µg/mL, read-out: INH

Q: With `COc1ccccc1-n1cc(COc2ccc([N+](=O)[O-])cc2/C=N/NC(=O)c2ccncc2)nn1` as the compound, how does the MIC [1] read?
A: Its MIC is greater than 25 µg/mL.

Q: And the zone of inhibition at 1000 µg/mL (Staphylococcus aureus [2])?
A: Its zone of inhibition at 1000 µg/mL is 12 mm.

Q: And the zone of inhibition at 1000 µg/mL (Bacillus cereus)?
A: The zone of inhibition at 1000 µg/mL was 12 mm.

Q: What about the zone of inhibition at 1000 µg/mL (Bacillus subtilis) of the same compound?
A: The zone of inhibition at 1000 µg/mL was 12 mm.

Q: And the zone of inhibition at 1000 µg/mL (Klebsiella aerogenes [3])?
A: Its zone of inhibition at 1000 µg/mL is 12 mm.

Q: What about the zone of inhibition at 1000 µg/mL (Escherichia coli) of the same compound?
A: Its zone of inhibition at 1000 µg/mL is 11 mm.

Q: What about the zone of inhibition at 1000 µg/mL (Salmonella typhi [4]) of the same compound?
A: Its zone of inhibition at 1000 µg/mL is 11 mm.

Q: And the zone of inhibition at 1000 µg/mL (Pseudomonas aeruginosa)?
A: Its zone of inhibition at 1000 µg/mL is 8 mm.

Q: And the zone of inhibition at 1000 µg/mL (Shigella boydii)?
A: Its zone of inhibition at 1000 µg/mL is 13 mm.

Q: And the zone of inhibition at 1000 µg/mL [5]?
A: Its zone of inhibition at 1000 µg/mL is 8 mm.

Q: And the zone of inhibition at 1000 µg/mL (Aspergillus niger)?
A: The zone of inhibition at 1000 µg/mL was 10 mm.

Q: What about the zone of inhibition at 1000 µg/mL (Saccharomyces cerevisiae) of the same compound?
A: The zone of inhibition at 1000 µg/mL was 10 mm.

Q: And the MIC (Salmonella typhi [6])?
A: Its MIC is 230 µg/mL (≈ 486 µM).

Q: What about the MIC (Staphylococcus aureus [7]) of the same compound?
A: Its MIC is 450 µg/mL (≈ 950 µM).

Q: And the MIC (Klebsiella aerogenes [8])?
A: Its MIC is 370 µg/mL (≈ 781 µM).

Q: Which MIC [1] does the source give for `Cc1ccccc1-n1cc(COc2ccc([N+](=O)[O-])cc2/C=N/NC(=O)c2ccncc2)nn1` here?
A: Its MIC is 1.56 µg/mL.

Q: What about the cytotoxicity at 48 h, 25 ug/ml [9] of the same compound?
A: The cytotoxicity at 48 h, 25 ug/ml was 24.2%.

Q: What about the zone of inhibition at 1000 µg/mL (Staphylococcus aureus [2]) of the same compound?
A: The zone of inhibition at 1000 µg/mL was 13 mm.

Q: What about the zone of inhibition at 1000 µg/mL (Bacillus cereus) of the same compound?
A: Its zone of inhibition at 1000 µg/mL is 12 mm.

Q: What about the zone of inhibition at 1000 µg/mL (Bacillus subtilis) of the same compound?
A: The zone of inhibition at 1000 µg/mL was 11 mm.

Q: And the zone of inhibition at 1000 µg/mL (Klebsiella aerogenes [3])?
A: The zone of inhibition at 1000 µg/mL was 10 mm.

Q: And the “diameter of the inhibition zone (DIZ)” value (Escherichia coli)?
A: The value was “inactive”.

Q: What about the zone of inhibition at 1000 µg/mL (Salmonella typhi [4]) of the same compound?
A: Its zone of inhibition at 1000 µg/mL is 11 mm.

Q: And the zone of inhibition at 1000 µg/mL (Pseudomonas aeruginosa)?
A: The zone of inhibition at 1000 µg/mL was 10 mm.

Q: What about the zone of inhibition at 1000 µg/mL (Shigella boydii) of the same compound?
A: Its zone of inhibition at 1000 µg/mL is 14 mm.

Q: What about the zone of inhibition at 1000 µg/mL [5] of the same compound?
A: The zone of inhibition at 1000 µg/mL was 12 mm.

Q: What about the zone of inhibition at 1000 µg/mL (Aspergillus niger) of the same compound?
A: Its zone of inhibition at 1000 µg/mL is 9 mm.

Q: And the zone of inhibition at 1000 µg/mL (Saccharomyces cerevisiae)?
A: The zone of inhibition at 1000 µg/mL was 12 mm.

Q: And the MIC (Salmonella typhi [6])?
A: The MIC was 270 µg/mL (≈ 590 µM).

Q: And the MIC (Staphylococcus aureus [7])?
A: The MIC was 310 µg/mL (≈ 678 µM).

Q: And the MIC (Klebsiella aerogenes [8])?
A: The MIC was 190 µg/mL (≈ 415 µM).

Q: For `O=C(N/N=C/c1cc([N+](=O)[O-])ccc1OCc1cn(-c2ccccc2Cl)nn1)c1ccncc1`, which MIC [1] is on record?
A: The MIC was 1.56 µg/mL.

Q: What about the cytotoxicity at 48 h, 25 ug/ml [9] of the same compound?
A: The cytotoxicity at 48 h, 25 ug/ml was 24.2%.

Q: What about the zone of inhibition at 1000 µg/mL (Staphylococcus aureus [2]) of the same compound?
A: Its zone of inhibition at 1000 µg/mL is 12 mm.

Q: And the zone of inhibition at 1000 µg/mL (Bacillus cereus)?
A: The zone of inhibition at 1000 µg/mL was 11 mm.

Q: What about the zone of inhibition at 1000 µg/mL (Bacillus subtilis) of the same compound?
A: Its zone of inhibition at 1000 µg/mL is 9 mm.

Q: And the zone of inhibition at 1000 µg/mL (Klebsiella aerogenes [3])?
A: The zone of inhibition at 1000 µg/mL was 10 mm.

Q: And the zone of inhibition at 1000 µg/mL (Escherichia coli)?
A: The zone of inhibition at 1000 µg/mL was 12 mm.

Q: And the zone of inhibition at 1000 µg/mL (Salmonella typhi [4])?
A: The zone of inhibition at 1000 µg/mL was 10 mm.

Q: What about the “diameter of the inhibition zone (DIZ)” value (Pseudomonas aeruginosa) of the same compound?
A: Its value is “inactive”.

Q: And the zone of inhibition at 1000 µg/mL (Shigella boydii)?
A: Its zone of inhibition at 1000 µg/mL is 7 mm.

Q: What about the “diameter of the inhibition zone (DIZ)” value [5] of the same compound?
A: Its value is “inactive”.

Q: And the zone of inhibition at 1000 µg/mL (Aspergillus niger)?
A: Its zone of inhibition at 1000 µg/mL is 10 mm.

Q: And the zone of inhibition at 1000 µg/mL (Saccharomyces cerevisiae)?
A: Its zone of inhibition at 1000 µg/mL is 12 mm.

Q: What about the MIC (Salmonella typhi [6]) of the same compound?
A: The MIC was 170 µg/mL (≈ 356 µM).

Q: What about the MIC (Staphylococcus aureus [7]) of the same compound?
A: Its MIC is 200 µg/mL (≈ 419 µM).

Q: What about the MIC (Klebsiella aerogenes [8]) of the same compound?
A: The MIC was 130 µg/mL (≈ 272 µM).

Q: For `O=C(N/N=C/c1cc([N+](=O)[O-])ccc1OCc1cn(-c2cccc(Cl)c2)nn1)c1ccncc1`, which MIC [1] is on record?
A: Its MIC is 12.5 µg/mL.

Q: What about the cytotoxicity at 48 h, 25 ug/ml [9] of the same compound?
A: The cytotoxicity at 48 h, 25 ug/ml was 20.1%.

Q: And the zone of inhibition at 1000 µg/mL (Staphylococcus aureus [2])?
A: Its zone of inhibition at 1000 µg/mL is 15 mm.

Q: And the zone of inhibition at 1000 µg/mL (Bacillus cereus)?
A: Its zone of inhibition at 1000 µg/mL is 10 mm.

Q: And the zone of inhibition at 1000 µg/mL (Bacillus subtilis)?
A: Its zone of inhibition at 1000 µg/mL is 11 mm.

Q: What about the zone of inhibition at 1000 µg/mL (Klebsiella aerogenes [3]) of the same compound?
A: Its zone of inhibition at 1000 µg/mL is 13 mm.

Q: And the zone of inhibition at 1000 µg/mL (Escherichia coli)?
A: The zone of inhibition at 1000 µg/mL was 10 mm.

Q: And the zone of inhibition at 1000 µg/mL (Pseudomonas aeruginosa)?
A: Its zone of inhibition at 1000 µg/mL is 8 mm.

Q: And the zone of inhibition at 1000 µg/mL (Shigella boydii)?
A: The zone of inhibition at 1000 µg/mL was 12 mm.

Q: What about the zone of inhibition at 1000 µg/mL [5] of the same compound?
A: The zone of inhibition at 1000 µg/mL was 10 mm.

Q: And the zone of inhibition at 1000 µg/mL (Aspergillus niger)?
A: The zone of inhibition at 1000 µg/mL was 9 mm.

Q: What about the zone of inhibition at 1000 µg/mL (Saccharomyces cerevisiae) of the same compound?
A: The zone of inhibition at 1000 µg/mL was 10 mm.

Q: What about the MIC (Salmonella typhi [6]) of the same compound?
A: The MIC was 140 µg/mL (≈ 293 µM).

Q: And the MIC (Staphylococcus aureus [7])?
A: The MIC was 220 µg/mL (≈ 460 µM).

Q: And the MIC (Klebsiella aerogenes [8])?
A: Its MIC is 260 µg/mL (≈ 544 µM).
